Structures are written as SMILES.

For assay [1], the target named is VHL co-expressed with Elongins B and C (Homo sapiens (Human), UniProt P40337). Description: Surface Plasmon Resonance Assay. The format is binding. The settings on record: SPR measured VHL affinity; geometric mean where more than one measurement. The gist of the method: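 Avidin-tagged VHL co-expressed with Elongins B and C captured on a streptavidin chip. Compounds injected low-to-high concentration at 20 °C and 80 μL/min in 50 mM HEPES pH 7.2, 150 mM NaCl, 0.5 mM TCEP, 0.001% Tween 20, 0.2% PEG3350, 2% DMSO. Kinetic parameters from fits of binding curves.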

Assay [2] addresses NanoLuc VHL fusion protein (Homo sapiens (Human), UniProt P40337). Description: VHL HEK-293 BRET Assay (NanoBRET Target Engagement). The conditions noted are these: geometric mean where more than one measurement. It counts as cell-based. On the procedure:
The VHL NanoBRET™ Target Engagement Assay analyzes the apparent affinity of test compounds for VHL in cells by competitive displacement of a VHL NanoBRET™ tracer reversibly bound to a NanoLuc® VHL fusion protein stably expressed in the cells. Test compounds were transferred to the assay plate (384 Well White Non-Binding Corning Assay Plates (Corning-3574)) using an Echo 555 Liquid Handler (Labcyte) in 2.5 nL increments and, as appropriate, intermediate stock concentrations of compounds, in order to prepare a titration series. 50 nL of control compound (10 mM; parental unlabeled VHL antagonist; see structure below) and 50 nL of DMSO (negative control) were dispensed into the appropriate control wells. DMSO was backfilled to a final volume of 50 nL as required. 50 nl per well of 1 mM VHL NanoBRET™ Tracer in DMSO (NanoBRET™ Tracer-PEG2-590 (see structure below)) was transferred into each well using an Echo 555 (ultimately yielding a final concentration of 1 uM). HEK 293 RT VHL-NanoLuc® stable cells were cultured in DMEM High Glucose with Pyruvate, 10% fetal bovine serum, 2 mg/mL of Geneticin Selective Antibiotic (50 mg/ml) and 2 mM HEPES (1 M). Cells were seeded in Opti-MEM (Life Technologies-11058-021), 1.7×10^5 cells/mL, 40 μl per well into the assay plate, centrifuged at 500 rpm for 30 seconds and incubated for 2 hours. Max Signal control wells consisted of DMSO only treated wells. Minimum Signal control wells contained of 10 uM parental unlabeled VHL antagonist (control compound—see structure below). 3× Complete Substrate plus Inhibitor Solution was prepared in Opti-MEM (consists of a 1:166 dilution of NanoBRET™ Nano-Glo® Substrate plus a 1:500 dilution of Extracellular NanoLuc® Inhibitor in Opti-MEM), and 20 ul was dispensed into each well of the 384-well plate and centrifuged at 1000 rpm for 1 minute, then incubated for 2 minutes at room temperature. Background Signal control wells were prepared without tracer for background correction steps. Plates were read using a PerkinElmer Envision Reader (model 2104-0020) equipped with Luminescence option (Mirror: BRET2 Enh (PE Barcode 659), Emission Filter: Omega 610LP (Barcode 504), 2nd Emission Filter: Umbelliferone 460 (Barcode 207), Measurement height: 6.5 mm, Measurement time: 1 s). The raw BRET ratio values were calculated by dividing the acceptor emission value (610 nm) by the donor emission value (460 nm) for each sample. To correct for background, the BRET ratio in the absence of tracer (average of no-tracer control samples) was subtracted from the BRET ratio of each sample. Raw BRET units were converted to milliBRET units (mBU) by multiplying each raw BRET value by 1,000. The normalized NanoBRET™ signal was calculated relative to the Max Signal control wells (DMSO treated control wells) and the Minimum Signal control wells. Percentage inhibition was calculated relative to the Minimum Signal control and Maximum Signal control wells. IC50 values were derived by four parameter curve fitting using the Robust method.

The target of the next assay is VHL Elongin B/C complex (Homo sapiens (Human), UniProt P40337). Description: Fluorescence Polarization (FP) VHL Binding Assay. The settings on record: VHL binding, FP assay; geometric mean where more than one measurement. In short, it runs like this: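 FP tracer competition using His6-tagged human VHL (E55-D213) co-expressed with Elongin B and C in E. coli, final 2.64 nM, with TAMRA-labelled VHL ligand probe at 1.67 nM final. Buffer 50 mM Tris pH 8.0, 120 mM NaCl, 0.005% NP-40, 1% DMSO; 1 h at room temperature. Pre-assay compound/protein signal subtracted; IC50 from four-parameter fit.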
VHL Elongin B/C complex, sequence (P40337 whole entry, looked up): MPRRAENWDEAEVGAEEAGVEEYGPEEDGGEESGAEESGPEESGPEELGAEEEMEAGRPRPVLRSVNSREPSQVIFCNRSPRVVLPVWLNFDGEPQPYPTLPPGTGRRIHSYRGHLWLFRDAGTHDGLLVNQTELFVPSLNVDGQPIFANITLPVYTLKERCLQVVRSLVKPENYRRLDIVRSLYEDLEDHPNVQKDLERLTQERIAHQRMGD
VHL Elongin B/C complex, sequence (Q15370 whole entry partner, looked up): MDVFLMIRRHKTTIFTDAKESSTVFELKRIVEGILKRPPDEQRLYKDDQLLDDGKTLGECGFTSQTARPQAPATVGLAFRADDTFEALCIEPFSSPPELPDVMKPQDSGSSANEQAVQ
VHL Elongin B/C complex, sequence (Q15369 whole entry partner, looked up): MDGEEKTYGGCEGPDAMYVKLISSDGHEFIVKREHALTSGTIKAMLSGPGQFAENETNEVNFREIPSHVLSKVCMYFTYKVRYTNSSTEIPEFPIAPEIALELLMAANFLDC

VHL co-expressed with Elongins B and C, sequence (P40337 whole entry, looked up): as the sequence (P40337 whole entry, looked up) above
VHL co-expressed with Elongins B and C, sequence (Q15370 whole entry partner, looked up): as the sequence (Q15370 whole entry partner, looked up) above
VHL co-expressed with Elongins B and C, sequence (Q15369 whole entry partner, looked up): as the sequence (Q15369 whole entry partner, looked up) above
NanoLuc VHL fusion protein, sequence (P40337 whole entry, looked up, the tested form may be a part): as the sequence (P40337 whole entry, looked up) above
NanoLuc VHL fusion protein, sequence (Q15370 whole entry partner, looked up, the tested form may be a part): as the sequence (Q15370 whole entry partner, looked up) above
NanoLuc VHL fusion protein, sequence (Q15369 whole entry partner, looked up, the tested form may be a part): as the sequence (Q15369 whole entry partner, looked up) above

By Kd is commonly meant the equilibrium constant for the complex coming apart. Read a high Kd as weaker binding. For orientation: IC50 means the concentration that inhibits the measured activity by half. On to `CC(=O)N1CCCCC1C(=O)N1C[C@H](O)CC1C1=NC(=O)[C@](C)(c2ccc(-c3scnc3C)cc2)N1` (single isomer, unassigned) [Example 124.3], for which the Kd in assay [1] is no less than 150 µM. The 50% inhibitory concentration (IC50) is 100 µM in assay [2] and no less than 400 µM at VHL Elongin B/C complex.
In turn, `Cc1cc(C(C(=O)N2C[C@H](O)CC2C2=NC(=O)[C@](C)(c3ccc(-c4scnc4C)cc3)N2)C(C)C)sn1` (single isomer, unassigned) [Example 119.1] gave a dissociation constant (Kd) in assay [1] of 150 µM. Further, the IC50 was 100 µM in assay [2] and no less than 400 µM at VHL Elongin B/C complex.
Turning to `Cc1noc(C(C(=O)N2C[C@H](O)CC2C2=NC(=O)[C@](C)(c3ccc(-c4scnc4C)cc3)N2)C(C)C)n1` (single isomer, unassigned) [Example 117.3], in assay [1], the dissociation constant Kd stood at 217 µM. The half-maximal inhibitory concentration (IC50) was 100 µM in assay [2] and no less than 400 µM at VHL Elongin B/C complex.
In the case of `Cc1ncsc1-c1ccc([C@]2(C)NC(C3C[C@@H](O)CN3C(=O)[C@@H](NC(=O)C3(C#N)CC3)C(C)(C)C)=NC2=O)cc1` (single isomer, unassigned) [Example 111.1], the affinity in assay [1], expressed as Kd, was 31.8 µM. Moreover, the figures for the IC50 (in assay [2]; at VHL Elongin B/C complex) were no less than 100 µM and 111 µM, respectively.
As for `Cc1noc(C(C(=O)N2C[C@H](O)CC2C2=NC(=O)[C@](C)(c3ccc(-c4scnc4C)cc3)N2)C(C)C)n1` (single isomer, unassigned) [Example 117.4], the dissociation constant Kd in assay [1] came to 150 µM. Moreover, the figures for the IC50 (in assay [2]; on VHL Elongin B/C complex) were 100 µM and no less than 400 µM, respectively.
In assay [1], `Cc1ncsc1-c1ccc([C@]2(C)NC(C3C[C@@H](O)CN3C(=O)C(c3cnn(C)c3)C(C)C)=NC2=O)cc1` (single isomer, unassigned) [Example 110.2] yielded an equilibrium dissociation constant (Kd) of 104 µM. Also, the half-inhibitory concentration (IC50) is no less than 100 µM in assay [2] and no less than 400 µM on VHL Elongin B/C complex.
The matching figures for `Cc1cc(C(C(=O)N2C[C@H](O)C[C@H]2C2=NN(CC(F)(F)F)C(C)(C)N2)C(C)C)on1` (single isomer, unassigned) [Example 134.2]: 57.4 µM, 41.3 µM and 48.2 µM.
Regarding `Cc1cc([C@H](C(=O)N2C[C@H](O)C[C@H]2C2=NOC3(CCCC3)N2)C(C)C)on1` [Example 127.2, (R)-1-((2S,4R)-4-hydroxy-2-(1-oxa-2,4-diazaspiro[4.4]non-2-en-3-yl)pyrrolidin-1-yl)-3-methyl-2-(3-methylisoxazol-5-yl)butan-1-one], in assay [1], the affinity, expressed as Kd, was 16.4 µM. Also, the figures for the IC50 (in assay [2]; at VHL Elongin B/C complex) were 73.2 µM and 50.8 µM, respectively.
Regarding `Cc1cc([C@H](C(=O)N2C[C@H](O)C[C@H]2C2=NOC3(CCc4ccccc43)N2)C(C)C)on1` (single isomer, unassigned) [Example 130.3], the equilibrium dissociation constant (Kd) in assay [1] amounted to 4.69 µM. The IC50 in assay [2] is 16.2 µM; at VHL Elongin B/C complex, 17.6 µM.
The matching figures for `Cc1ncsc1-c1ccc([C@]2(C)NC(C3C[C@@H](O)CN3C(=O)C3N(S(C)(=O)=O)CCC3(C)C)=NC2=O)cc1` (single isomer, unassigned) [Example 125.3]: no less than 150 µM, 100 µM and no less than 400 µM.
`CC/C(=C(\c1ccc(O)cc1)c1ccc(OCCN(C)C(=O)CCCOCCOc2cc(C(C(=O)N3C[C@H](O)CC3C3=NC(=O)[C@](C)(c4ccc(-c5scnc5C)cc4)N3)C(C)C)on2)cc1)c1ccccc1` (single isomer, unassigned) [Example 1003.1] registered an equilibrium dissociation constant (Kd) in assay [1] of 67.1 µM. Further, the IC50 in assay [2] was no less than 100 µM; on VHL Elongin B/C complex, no less than 400 µM.
Turning to `Cc1noc(C(C(=O)N2C[C@H](O)CC2C2=NC(=O)[C@](C)(c3ccc(-c4scnc4C)cc3)N2)C(C)C)n1` (single isomer, unassigned) [Example 117.1], the affinity in assay [1], expressed as Kd, was 155 µM. Moreover, the IC50 is 100 µM in assay [2] and no less than 400 µM on VHL Elongin B/C complex.
For the compound `CCN1N=C([C@@H]2C[C@@H](O)CN2C(=O)C(c2cc(C)no2)C(C)C)NC1(C)C` (single isomer, unassigned) [Example 115.2], in assay [1], the Kd is 4.03 µM. In addition, the results for the concentration for half-maximal inhibition (IC50) (in assay [2]; at VHL Elongin B/C complex) were 25.7 µM and 40.7 µM, respectively.

The values are drawn from patent publication US11242344B2, “(4-hydroxypyrrolidin-2-yl)-heterocyclic compounds and methods of use thereof” (Genentech, Inc., priority 2017, dated 2022).
